Test results as given in ChEMBL document CHEMBL4152326 (2018).

Legend:
Type in all cases: functional
[1] = tested on: Pseudomonas aeruginosa; test: Antimicrobial activity against Pseudomonas aeruginosa 27060deltaR1 harboring deletion of R1 plasmid in presence of human apo-transferrin by broth microdilution method
[2] = tested on: Pseudomonas aeruginosa; test: Antimicrobial activity against AmpC overproducing Pseudomonas aeruginosa SR24-12 in presence of human apo-transferrin by broth microdilution method
[3] = tested on: Pseudomonas aeruginosa; test: Antimicrobial activity against IMP-1 producing Pseudomonas aeruginosa SR27060 in presence of human apo-transferrin by broth microdilution method
[4] = tested on: Stenotrophomonas maltophilia; test: Antimicrobial activity against L-1 producing Stenotrophomonas maltophilia SR21970 in presence of human apo-transferrin by broth microdilution method
[5] = tested on: Acinetobacter baumannii; test: Antimicrobial activity against OXA-23/OXA-58 producing Acinetobacter baumannii SR27323 in presence of human apo-transferrin by broth microdilution method
[6] = tested on: Escherichia coli; test: Antimicrobial activity against SHV-4 producing Escherichia coli ATCC BAA-200 in presence of human apo-transferrin by broth microdilution method
[7] = tested on: Pseudomonas aeruginosa; test: Antimicrobial activity against IMP-1 producing Pseudomonas aeruginosa SR27001 in presence of human apo-transferrin by broth microdilution method
[8] = tested on: Klebsiella pneumoniae; test: Antimicrobial activity against KPC-2 producing Klebsiella pneumoniae ATCC BAA-1705 in presence of human apo-transferrin by broth microdilution method
[9] = tested on: Pseudomonas aeruginosa; test: Antimicrobial activity against Pseudomonas aeruginosa SR24 in presence of human apo-transferrin by broth microdilution method
[10] = tested on: Pseudomonas aeruginosa; test: Antimicrobial activity against VIM-2 producing Pseudomonas aeruginosa SBRKM-28 in presence of human apo-transferrin by broth microdilution method

NCC[N+]1(CC2=C(C(=O)[O-])N3C(=O)[C@@H](NC(=O)/C(=N\OC[C@H](NC(=O)c4ccc(O)c(O)c4Cl)C(=O)O)c4csc(N)n4)[C@H]3SC2)CCCC1
MIC [1]: 0.063 µg/mL | MIC [2]: 0.25 µg/mL | MIC [3]: 0.125 µg/mL | MIC [4]: > 32 µg/mL | MIC [5]: 4 µg/mL | MIC [6]: > 32 µg/mL | MIC [7]: 0.25 µg/mL | MIC [8]: 0.25 µg/mL | MIC [9]: 0.125 µg/mL

C[C@@H](O)[C@H]1C(=O)N2C(C(=O)O)=C(S[C@@H]3CN[C@H](C(=O)N(C)C)C3)[C@H](C)[C@H]12 [MEROPENEM]
MIC [2]: 0.125 µg/mL | MIC [4]: > 64 µg/mL | MIC [6]: ≤ 0.063 µg/mL | MIC [9]: ≤ 0.063 µg/mL

C[N+]1(CC2=C(C(=O)[O-])N3C(=O)[C@@H](NC(=O)/C(=N\O[C@@H](CNC(=O)c4ccc(O)c(O)c4Cl)C(=O)O)c4csc(N)n4)[C@H]3SC2)CCCC1
MIC [1]: 0.5 µg/mL | MIC [2]: 0.5 µg/mL | MIC [3]: 4 µg/mL | MIC [4]: 16 µg/mL | MIC [5]: 1 µg/mL | MIC [6]: > 32 µg/mL | MIC [7]: 8 µg/mL | MIC [8]: 0.25 µg/mL | MIC [9]: 0.125 µg/mL

CC(C)(O/N=C(\C(=O)N[C@@H]1C(=O)N2C(C(=O)[O-])=C(C[n+]3cccc4c3CCCN4C(=O)c3ccc(O)c(O)c3Cl)CS[C@H]12)c1csc(N)n1)C(=O)O
MIC [3]: 4 µg/mL | MIC [4]: 0.5 µg/mL | MIC [10]: 0.125 µg/mL | MIC [7]: 4 µg/mL

CC(C)(O/N=C(\C(=O)N[C@@H]1C(=O)N2C(C(=O)[O-])=C(C[N+]3(C)CCN(C(=O)c4ccc(O)c(O)c4Cl)CC3)CS[C@H]12)c1csc(N)n1)C(=O)O
MIC [1]: 0.25 µg/mL | MIC [2]: 0.125 µg/mL | MIC [3]: 8 µg/mL | MIC [4]: 1 µg/mL | MIC [5]: 1 µg/mL | MIC [6]: 32 µg/mL | MIC [7]: 4 µg/mL | MIC [8]: 0.125 µg/mL | MIC [9]: 0.125 µg/mL

CO/N=C(\C(=O)N[C@@H]1C(=O)N2C(C(=O)[O-])=C(C[N+]3(CCNC(=O)c4ccc(O)c(O)c4Cl)CCCC3)CS[C@H]12)c1csc(N)n1
MIC [3]: 32 µg/mL | MIC [4]: 2 µg/mL | MIC [10]: 0.5 µg/mL | MIC [7]: 4 µg/mL

CC(C)(O/N=C(\C(=O)N[C@@H]1C(=O)N2C(C(=O)[O-])=C(C[N+]3(CCNC(=O)c4ccc(=O)n(O)c4)CCCC3)CS[C@H]12)c1csc(N)n1)C(=O)O
MIC [1]: 4 µg/mL | MIC [2]: 2 µg/mL | MIC [3]: 8 µg/mL | MIC [4]: 4 µg/mL | MIC [5]: 32 µg/mL | MIC [6]: 8 µg/mL | MIC [7]: 16 µg/mL | MIC [8]: 2 µg/mL | MIC [9]: 2 µg/mL

CC(C)(O/N=C(\C(=O)N[C@@H]1C(=O)N2C(C(=O)[O-])=C(C[N+]3(CCN)CCCC3)CS[C@H]12)c1csc(N)n1)C(=O)O
MIC [1]: 4 µg/mL | MIC [2]: 8 µg/mL | MIC [3]: 16 µg/mL | MIC [4]: > 32 µg/mL | MIC [5]: 8 µg/mL | MIC [6]: 16 µg/mL | MIC [7]: 32 µg/mL | MIC [8]: 8 µg/mL | MIC [9]: 2 µg/mL

CC(C)(O/N=C(\C(=O)N[C@@H]1C(=O)N2C(C(=O)[O-])=C(C[n+]3cc4cc(NC(=O)c5ccc(O)c(O)c5Cl)ccn4c3)CS[C@H]12)c1csc(N)n1)C(=O)O
MIC [1]: 4 µg/mL | MIC [2]: 2 µg/mL | MIC [3]: > 32 µg/mL | MIC [4]: > 32 µg/mL | MIC [5]: 0.5 µg/mL | MIC [6]: 4 µg/mL | MIC [7]: > 32 µg/mL | MIC [8]: 0.25 µg/mL | MIC [9]: 0.25 µg/mL

COc1c(C(=O)NCC[N+]2(CC3=C(C(=O)[O-])N4C(=O)[C@@H](NC(=O)/C(=N\OC(C)(C)C(=O)O)c5csc(N)n5)[C@H]4SC3)CCCC2)ccc(O)c1O
MIC [1]: 2 µg/mL | MIC [2]: 0.125 µg/mL | MIC [3]: 4 µg/mL | MIC [4]: 2 µg/mL | MIC [5]: 1 µg/mL | MIC [6]: 8 µg/mL | MIC [7]: 4 µg/mL | MIC [8]: 0.25 µg/mL | MIC [9]: 0.125 µg/mL

NCC[N+]1(CC2=C(C(=O)[O-])N3C(=O)[C@@H](NC(=O)/C(=N\O[C@@H](CNC(=O)c4ccc(O)c(O)c4Cl)C(=O)O)c4csc(N)n4)[C@H]3SC2)CCCC1
MIC [1]: 0.063 µg/mL | MIC [2]: 0.063 µg/mL | MIC [3]: 0.125 µg/mL | MIC [4]: 16 µg/mL | MIC [5]: 0.5 µg/mL | MIC [6]: 8 µg/mL | MIC [7]: 0.5 µg/mL | MIC [8]: 0.125 µg/mL | MIC [9]: 0.125 µg/mL
